Test results published in patent US12528792B2, “Sulfonamide compounds and the use thereof in the treatment of cancer” (TROBIO THERAPEUTICS PTY LTD, priority 2019, dated 2026).

Columns and labels:
[1] = target: T1, Tpm3.1-containing actin microfilaments in SK-N-SH neuroblastoma cells (Homo sapiens, UniProt P06753); assay: Imaging and quantitation of Tpm3.1 mCherry and 488-Atto-Phalloidin actin filaments; assay type: cell-based; conditions: 24 hours post-treatment, two concentrations, FIG. 2 and FIG. 3
T1 construct: expressed in transfected cells; host or cells: SK-N-SH neuroblastoma cells
Protocol: The ability of compounds 24, 26 and 143 to disrupt Tpm3.1-containing actin microfilaments was investigated in SK—N—SH neuroblastoma cells that express Tpm3.1 labelled with the mCherry fluorophore. Cells were seeded at 3×10^4 cells per well in a volume of 1000 μL complete media onto a 12 well plate containing 13 mm coverslips and left to plate down for 24 hours prior to treatment. Cells were then treated with DMSO and two concentrations of the test compounds. 24 hours post-treatment, cells were fixed with 16% paraformaldehyde (PBS) and stained with 488-Atto-Phalloidin to visualise the actin filament bundles. Single plane images were obtained using the Olympus IX83 epi-fluorescence microscope. Ten fields of view were collected for both Tpm3.1 mCherry fluorophore (FIG. 2) and 488-Atto-Phalloidin (FIG. 3) with each treatment condition.
Quantitation of either Tpm3.1 mCherry filaments or 488-Atto-Phalloidin filaments was performed using ImageJ 1.52p software (ImageJ, NIH). The mean pixel intensity from a cell was measured by using a line across the entire cell cytoplasmic area above or below the nuclear region. The line was made to cross the filament bundles at a 90° angle for the measurement rather than run along a single filament. A total of n=100 cells were measured from ten fields of view. […]

[2] = test system: A2780 ovarian cancer cells; assay: Drug combination screen, 6x6 dose matrix, Bliss-independence synergy; assay type: cell-based; set-up: key to Max. Synergy, Vinorelbine: Bliss synergy score; 0 = no synergy, negative = antagonism; highest in matrix; key to Total Synergy, Vinorelbine: sum of Bliss synergy scores across the dose matrix; conditions: 72 h (26*: 96-well plate format)
Protocol: In vitro growth inhibition assays were performed as technical triplicate in two independent experiments and cell viability was assessed by Alamar Blue assay readout. Briefly, cells in logarithmic phase growth were seeded in 384-well plates in a 50 μL/well assay volume. Cells were seeded at 1,200 cells/well using a Multidrop 384 (Thermo Scientific) and allowed to adhere at 37° C. with 5% CO2, in a humidified atmosphere (LiCONIC incubator). After 24 hours incubation, test compounds, positive control (20 μM Thonzonium bromide, 100% kill) and vehicle only (0.4% DMSO) were added into wells of each assay plate using a Tecan HP D300 Digital Dispenser in technical triplicate under minimum light. Following 72 hours drug exposure, metabolic activity was detected by addition of 10% (v/v) Alamar Blue reagent to each assay well using a Multidrop Cambi (Thermo Scientific) and determined by measurement of fluorescence intensity (excitation 555 nm, emission 585 nm) using an EnSpire (Perkin Elmer) plate reader. Readings were performed at 0 hour (background) and after 6 hours alamar blue incubation at 37° C.
The two drugs in each combination matrix were dispensed using a Tecan HP D300 Digital Dispenser. Assays were performed in triplicate for each drug combination (test compound/vinorelbine and test compound/paclitaxel combinations). Synergistic drug interactions were calculated from the averaged cell viability data using the methodology described below.
Synergistic drug interactions were determined for each pa1rw1se drug combination by applying the Bliss-independence model that assumes independence of drug mechanisms. Prior to the analysis, percent cell viability (CV) for combination data were converted to fractional cell growth inhibition (GI) by the formula: […]
The Bliss additivism model was used to calculate a predicted combined response C to two single agents with responses A and B (using GI values), as follows:
The final score for any combination was reported as the difference between the value predicted by the additive model and the experimentally observed value, normalised to 100. Using GI values the maximum possible synergy score is 100, with 0 indicating no synergy and negative indicating possible antagonism. Scores were also reported as a “Max synergy” score, which is the highest individual synergy score for each combination matrix, and a “Total synergy” score, which was obtained by summation of each individual synergy score for the matrix.
The single agent IC50 values for the test compounds and their synergy scores in combination with vinorelbine and paclitaxel are presented in Table 4. The data is listed as IC50 mean from technical triplicates for two independent experiments. The averaged IC50 concentrations for the single agents from both runs were then used to generate the 6×6 dose matrices in the synergy experiment. Synergy scores for each drug combination were calculated by the Bliss-independence model. The maximum synergy and total synergy scores for each combination in A2780 cells are listed.

T1 sequence (P06753 1-248 isoform P06753-2): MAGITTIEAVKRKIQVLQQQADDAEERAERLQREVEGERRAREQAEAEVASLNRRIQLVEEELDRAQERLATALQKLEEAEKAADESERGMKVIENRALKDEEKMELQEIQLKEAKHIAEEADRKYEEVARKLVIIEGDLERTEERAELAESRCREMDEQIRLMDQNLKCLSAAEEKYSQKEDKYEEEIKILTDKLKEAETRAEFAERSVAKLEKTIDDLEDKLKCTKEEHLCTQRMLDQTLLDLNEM

Structure (SMILES): O=C(Nc1ccc(C(F)(F)F)cc1)c1ccn(S(=O)(=O)c2ccc3[nH]ccc3c2)c1 [Compound 26, 1-((1H-indol-5-yl)sulfonyl)-N-(4-(trifluoromethyl)phenyl)-1H-pyrrole-3-carboxamide]
- Disruption of Tpm3.1-containing actin microfilaments [1]: disrupt Tpm3.1-containing actin microfilaments in a dose-dependent manner
- Max. Synergy, Paclitaxel ([2]; combination with paclitaxel, Bliss score): 7.83
- Total Synergy, Paclitaxel ([2]; combination with paclitaxel, sum of Bliss scores of the matrix): 61.23
- Max. Synergy, Vinorelbine ([2]; combination with vinorelbine, Bliss score): 10.86
- Total Synergy, Vinorelbine ([2]; combination with vinorelbine, sum of Bliss scores of the matrix): 60.91
